Assay results published in US9029063B2, “Negative-working lithographic printing plate precursors” (Eastman Kodak Company, priority 2011, dated 2015).
Read-outs that look alike come from different tables or passages of the source.

Test: Solubility in Dowanol PM (2-methoxy propanol)
Assay type: physicochemical
Settings: 20 °C, organic solvent or mixture
From the text: The imagable layers comprise a radiation-sensitive imaging composition that includes one or more infrared radiation absorbing dyes. […] 2-Methoxy propanol (or propylene glycol methyl ether) is available from various commercial sources, and for example, can be obtained in Dowanol® PM. In some embodiments, the ion exchange products formed between the infrared radiation absorbing cyanine cation and any counter anion from any other components, for example, a free radical initiator, in the imagable layer.
Dowanol® PM is propylene glycol methyl ether that is available from Dow Chemical.

[1] = Dowanol PM (2-methoxy propanol), Table II, read-out: S1, solubility of IR Dye in Dowanol PM
[2] = Dowanol PM (2-methoxy propanol), Table IV, read-out: S1, solubility of IR Dye in Dowanol PM
[3] = tetraphenyl borate salt of the dye cation, Dowanol PM, Table II, read-out: S2, solubility of the tetraphenyl borate salt of the IR cation in Dowanol PM
[4] = tetraphenyl borate salt of the dye cation, Dowanol PM, Table IV, read-out: S2, solubility of the tetraphenyl borate salt of the IR cation in Dowanol PM
[5] = tetraphenylborate salt of the dye cation, Dowanol PM, Table I, read-out: S2, Solubility of the tetraphenylborate salt of the IR cation in Dowanol PM
[6] = Dowanol PM (2-methoxy propanol), Table I, read-out: S1, Solubility of IR Dye in Dowanol PM

Which solubility [1] does the source give for `C=Cc1ccc(CSc2nnc(SC3=C(/C=C/C4=[N+](C)c5ccccc5C4(C)C)CCC/C3=C\C=C3\N(C)c4ccccc4C3(C)C)s2)cc1` [compound 2] here?
Its solubility is 128 mg/mL.

What about the solubility [2] of the same compound?
Its solubility is 128 mg/mL.

What about the solubility [3] of the same compound?
The solubility was 4.8 mg/mL.

And the solubility [4]?
Its solubility is 4.8 mg/mL.

What about the solubility [5] of the same compound?
The solubility was 4.8 mg/mL.

Which solubility [6] does the source give for `CN1/C(=C/C=C2\CCCC(/C=C/C3=[N+](C)c4ccccc4C3(C)C)=C2Sc2nnnn2-c2ccccc2)C(C)(C)c2ccccc21` [compound 1] here?
Its solubility is 192 mg/mL.

And the solubility [1]?
Its solubility is 192 mg/mL.

And the solubility [2]?
Its solubility is 192 mg/mL.

What about the solubility [3] of the same compound?
The solubility was 1.4 mg/mL.

And the solubility [4]?
The solubility was 1.4 mg/mL.

What about the solubility [5] of the same compound?
Its solubility is 1.4 mg/mL.

Which results are given for `CN1/C(=C/C=C2\CCCC(/C=C/C3=[N+](C)c4ccccc4C3(C)C)=C2Sc2ccc(C(C)(C)C)cc2)C(C)(C)c2ccccc21` [compound 4]?
solubility [6]: 97 mg/mL; solubility [5]: 21 mg/mL
